Measured values taken from patent US11787839B2, “Targeting α2δ-1-bound glutamate receptors for treating diseases and disorders” (Board of Regents, The University of Texas System, priority 2017, dated 2023).

What was measured:
[1] = biological target: T1, NMDARs of spinally projecting PVN neurons (Rattus norvegicus, UniProt P35439+Q00959+Q00960); assay: Recordings of spinally projecting PVN neurons in rat brain slices (Ang II); assay type: cell-based; details: losartan 2 μmol/L, pregabalin 20 μmol/L, peptides 1 μmol/L
T1 construct: from tissue; host or cells: rat hypothalamic slices containing the PVN (Sprague-Dawley, WKY, SHR) and synaptosomes made from them
Text: Retrograde labeling of spinally projecting PVN neurons: Rats or mice were anesthetized with 2-3% isoflurane, and their spinal cords at the T1-T4 level were exposed through dorsal laminectomy. A fluorescent microsphere suspension (FluoSpheres, 0.04 μm; Molecular Probes, Invitrogen, Eugene, Oreg.) was pressure ejected (Nanoject II Microinjectors, Drummond Scientific Company, Broomall, Pa.) bilaterally into the IML region of the spinal cord in six separate 50-nl injections using a glass micropipette (tip diameter, 20-30 μm). […] The wound was closed with sutures after injection. Animals were returned to their cages for 4-7 days, which was sufficient time to permit the tracer to be retrogradely transported to the PVN. The animals were inspected daily for motor activity, signs of infection, and food and water intake.
Brain slice preparation: Four to seven days after fluorescent tracer injection, the animals were anesthetized with isoflurane and rapidly decapitated. […] Coronal slices (thickness, 300 μm) containing the PVN were cut from the tissue block in the ice-cold aCSF. […] The brain slices were placed in a glass-bottom chamber and continuously perfused with aCSF at 3.0 ml/min at 34° C. maintained by an inline solution heater and temperature controller.
The labeled PVN neurons were briefly identified with the aid of epifluorescence illumination, and whole-cell recordings from labeled PVN neurons were performed under differential interference contrast optics on an upright microscope (BX50 WI; Olympus Optical, Tokyo, Japan). Recordings of postsynaptic currents began 5 min after the whole-cell access was established and the current reached a steady state.
Signals were processed with an […] amplifier (Axon Instruments, Foster City, Calif.). A liquid junction potential of 15 mV (for the potassium gluconate pipette solution) was corrected during off-line analysis.
Postsynaptic NMDAR currents were elicited by puff application of 100 μmol/L NMDA to the recorded neuron using a positive pressure system (4 p.s.i., 50 ms; Toohey Company, Fairfield, N.J.). The tip of the puff pipette was placed 150 μm from the recorded neuron. […] The NMDAR current data presented in the manuscript were the average of 3 consecutive currents elicited by repeated puff NMDA. The neuron was discarded if the current was not stable.
Ang II, losartan, and NMDA were obtained from Sigma (St. Louis, Mo.). The α2δ-1Tat peptide and scrambled control peptide were synthesized by Bio Basic Inc. (Markham, Ontario, Canada) and validated by liquid chromatography and mass spectrometry. […] All drugs were prepared immediately before the experiments and applied to the slice chamber. The brain slices were first pretreated with Ang II, losartan, α2δ-1Tat peptide, or control peptide in the slice incubation chamber before recording. For electrophysiological recording, the treatment agents were immediately removed and the brain slice transferred to a separate recording chamber.

[2] = test system: rats treated with the Cacna2d1 vector; assay: Withdrawal thresholds in rats overexpressing Cacna2d1 (lentiviral vector); assay type: in vivo, rat; details: Cacna2d1 vector rats; AP5, peptide, gabapentin intrathecal; memantine systemic
morphine-treated rats = assay: Opioid-induced hyperalgesia and analgesic tolerance in rats
[3] = test system: presynaptic NMDARs of spinal dorsal horn neurons; assay: Spinal cord slice recordings, morphine-treated WT and Cacna2d1 KO mice; details: WT mice
WT and Cacna2d1 KO mice = assay: Opioid-induced hyperalgesia and analgesic tolerance in WT and Cacna2d1 KO mice
paclitaxel-treated rats = assay: Paclitaxel-induced pain hypersensitivity in rats; assay type: in vivo, rat; details: intrathecal 5 μg pregabalin, 1 μg peptides
Experimental: To induce neuropathic pain, rats and mice were intraperitoneally injected with paclitaxel (2 mg/kg; TEVA Pharmaceuticals, North Wales, Pa.) every 2 days for a total of 4 injections (days 1, 3, 5 and 7; total dose, 8 mg/kg), as described previously (Polomano et al., 2001). Animals in the control group were intraperitoneally injected with the vehicle (Cremophor EL/ethanol, 1:1) on the same 4 days. The presence of tactile allodynia was confirmed 10 to 12 days after drug treatment. Intrathecal catheters were implanted in some paclitaxel-treated rats during isoflurane-induced anesthesia. Briefly, a small puncture was made in the atlanto-occipital membrane of the cisterna magna and inserted a PE-10 catheter with the caudal tip reaching the lumbar enlargement of the spinal cord (Chen et al., 2014a; Xie et al., 2016).
Behavioral assessment of nociception: To measure tactile allodynia, mice or rats were individually placed on a mesh floor within a suspended chamber. […]
To quantify the mechanical nociceptive threshold in rats, the paw pressure (Randall-Selitto) test was conducted on the left hindpaw using an analgesiometer (Ugo Basile, Varese, Italy). […] When the rat withdrew its paw or vocalized, the pedal was immediately released, and the withdrawal threshold was recorded (Chen et al., 2014a). […]
To assess the thermal sensitivity of rats, the were placed individually on the glass surface of a thermal testing apparatus (IITC Life Sciences, Woodland Hills, Calif.). […] The paw withdrawal latency was recorded with a timer, and the hindpaw was tested twice to obtain an average time. […] After the threshold temperature was recorded, the mice were immediately removed from the plate. The heat threshold measurement was repeated 30 min later, and the average of the 2 recorded temperatures was considered as the heat threshold. The cold threshold was measured by cooling the plate from 30° C. at a rate of 6° C./min until nocifensive behaviors were observed. […]

[4] = biological target: presynaptic NMDARs of spinal lamina II neurons (Rattus norvegicus, UniProt P35439+Q00959+Q00960)
presynaptic NMDARs of spinal lamina II neurons, sequence (Q00959 20-1464 limits assumed, other chains not shown): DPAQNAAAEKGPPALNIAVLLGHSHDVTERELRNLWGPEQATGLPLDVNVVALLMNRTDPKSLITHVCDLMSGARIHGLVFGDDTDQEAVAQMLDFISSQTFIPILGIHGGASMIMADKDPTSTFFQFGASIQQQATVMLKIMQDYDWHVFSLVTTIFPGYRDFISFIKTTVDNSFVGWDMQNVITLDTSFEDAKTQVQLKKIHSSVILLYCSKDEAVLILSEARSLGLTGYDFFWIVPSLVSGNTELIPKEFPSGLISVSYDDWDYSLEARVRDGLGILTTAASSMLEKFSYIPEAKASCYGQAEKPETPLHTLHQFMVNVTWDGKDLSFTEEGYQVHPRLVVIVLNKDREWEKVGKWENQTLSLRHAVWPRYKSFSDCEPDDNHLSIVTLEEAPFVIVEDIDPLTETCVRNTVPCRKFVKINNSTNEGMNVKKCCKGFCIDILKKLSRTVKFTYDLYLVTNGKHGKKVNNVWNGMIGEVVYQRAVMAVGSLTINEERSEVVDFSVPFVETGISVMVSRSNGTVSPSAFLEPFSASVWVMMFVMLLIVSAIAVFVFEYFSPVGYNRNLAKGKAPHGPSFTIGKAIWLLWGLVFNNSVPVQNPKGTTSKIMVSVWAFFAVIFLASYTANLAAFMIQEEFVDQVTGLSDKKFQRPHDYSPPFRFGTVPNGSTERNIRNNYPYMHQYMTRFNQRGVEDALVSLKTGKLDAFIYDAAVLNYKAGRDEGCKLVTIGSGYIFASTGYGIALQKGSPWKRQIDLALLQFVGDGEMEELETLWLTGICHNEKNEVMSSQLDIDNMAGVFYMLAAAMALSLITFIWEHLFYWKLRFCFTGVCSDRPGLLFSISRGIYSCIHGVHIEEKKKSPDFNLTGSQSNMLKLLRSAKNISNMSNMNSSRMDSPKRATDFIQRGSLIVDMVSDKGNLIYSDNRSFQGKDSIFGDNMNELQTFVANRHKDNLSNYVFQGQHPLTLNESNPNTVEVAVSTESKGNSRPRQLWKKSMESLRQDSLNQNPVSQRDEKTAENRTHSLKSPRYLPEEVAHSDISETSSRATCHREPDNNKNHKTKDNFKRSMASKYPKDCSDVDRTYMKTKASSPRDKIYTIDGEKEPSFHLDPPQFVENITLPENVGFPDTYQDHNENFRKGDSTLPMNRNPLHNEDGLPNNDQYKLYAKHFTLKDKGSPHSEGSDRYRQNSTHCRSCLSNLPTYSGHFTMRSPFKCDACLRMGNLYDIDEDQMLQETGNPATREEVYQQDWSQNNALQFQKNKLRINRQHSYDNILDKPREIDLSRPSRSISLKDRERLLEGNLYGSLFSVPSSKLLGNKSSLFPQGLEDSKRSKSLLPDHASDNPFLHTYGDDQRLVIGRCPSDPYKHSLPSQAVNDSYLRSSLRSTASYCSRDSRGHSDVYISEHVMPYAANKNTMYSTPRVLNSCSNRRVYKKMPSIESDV
presynaptic NMDARs of spinal lamina II neurons, sequence (Q00960 27-1482, other chains not shown): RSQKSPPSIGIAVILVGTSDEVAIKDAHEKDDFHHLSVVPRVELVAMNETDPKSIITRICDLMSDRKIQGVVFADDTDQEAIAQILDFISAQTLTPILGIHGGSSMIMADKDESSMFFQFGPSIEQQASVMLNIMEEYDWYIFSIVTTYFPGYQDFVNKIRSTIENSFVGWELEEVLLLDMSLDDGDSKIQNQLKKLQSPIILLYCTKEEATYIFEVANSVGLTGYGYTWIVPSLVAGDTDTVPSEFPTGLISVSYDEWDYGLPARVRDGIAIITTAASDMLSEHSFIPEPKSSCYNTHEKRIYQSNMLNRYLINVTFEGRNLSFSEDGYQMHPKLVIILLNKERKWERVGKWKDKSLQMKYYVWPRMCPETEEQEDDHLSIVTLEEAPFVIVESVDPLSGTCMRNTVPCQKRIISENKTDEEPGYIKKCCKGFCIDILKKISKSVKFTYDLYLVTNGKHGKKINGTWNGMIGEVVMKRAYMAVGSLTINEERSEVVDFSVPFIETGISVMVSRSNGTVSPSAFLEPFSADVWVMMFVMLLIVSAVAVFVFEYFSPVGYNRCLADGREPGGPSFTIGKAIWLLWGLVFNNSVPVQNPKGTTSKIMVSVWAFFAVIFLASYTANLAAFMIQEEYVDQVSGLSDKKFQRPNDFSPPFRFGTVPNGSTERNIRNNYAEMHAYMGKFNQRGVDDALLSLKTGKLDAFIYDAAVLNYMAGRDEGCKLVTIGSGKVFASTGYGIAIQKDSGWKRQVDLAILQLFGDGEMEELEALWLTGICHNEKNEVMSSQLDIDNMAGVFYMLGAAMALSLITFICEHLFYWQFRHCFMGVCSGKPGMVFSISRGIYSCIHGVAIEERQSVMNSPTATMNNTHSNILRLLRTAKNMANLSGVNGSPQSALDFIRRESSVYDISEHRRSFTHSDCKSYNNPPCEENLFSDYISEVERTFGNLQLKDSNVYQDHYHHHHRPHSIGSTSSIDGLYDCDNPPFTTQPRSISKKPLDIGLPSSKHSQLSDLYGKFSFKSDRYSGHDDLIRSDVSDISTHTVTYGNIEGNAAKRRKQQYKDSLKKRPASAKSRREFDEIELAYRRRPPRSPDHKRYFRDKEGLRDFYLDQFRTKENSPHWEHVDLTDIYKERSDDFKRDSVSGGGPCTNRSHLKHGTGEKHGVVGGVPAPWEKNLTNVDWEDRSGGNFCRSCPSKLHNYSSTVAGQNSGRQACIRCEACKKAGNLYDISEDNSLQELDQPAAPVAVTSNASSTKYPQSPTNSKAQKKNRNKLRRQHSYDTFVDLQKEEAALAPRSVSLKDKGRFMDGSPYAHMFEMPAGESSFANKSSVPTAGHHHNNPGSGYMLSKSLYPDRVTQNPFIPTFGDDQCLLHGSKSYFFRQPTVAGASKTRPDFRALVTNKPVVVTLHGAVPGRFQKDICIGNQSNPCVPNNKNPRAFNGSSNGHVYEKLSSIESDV

[5] = daily morphine in vehicle- or control peptide-treated rats
[6] = WT mice, morphine 10 mg/kg twice a day, 8 days
[7] = paclitaxel-treated rats, AP5 50 μM, pregabalin 20 μM, peptides 1 μM
[8] = vehicle-treated rats, AP5 50 μM, pregabalin 20 μM, peptides 1 μM

## CCCCc1nc(Cl)c(CO)n1Cc1ccc(-c2ccccc2-c2nn[nH]n2)cc1 [losartan]
[1]
  effect of Ang II on mEPSC frequency in pretreated slices: completely blocked
[1]; 30 min
  effect of Ang II on puff NMDA currents in pretreated slices: abolished

## CC12CC3CC(C)(C1)CC(N)(C3)C2 [memantine]
[2]
  pain hypersensitivity induced by Cacna2d1 overexpression (tactile and pressure withdrawal thresholds): readily reversed

## CN1CC[C@]23c4c5ccc(O)c4O[C@H]2[C@@H](O)C=C[C@H]3[C@H]1C5.O=S(=O)(O)O [morphine, morphine sulfate]
morphine-treated rats; by day 6, vehicle- or control peptide-treated rats
  effect of 5 mg/kg morphine on the withdrawal thresholds: failed to produce a significant effect
morphine-treated rats; [5]
  anti-nociceptive effect of morphine: gradual decrease
  baseline withdrawal thresholds (mechanical and thermal hyperalgesia): gradual reduction
[3]; chronic morphine
  amplitude of monosynaptic EPSCs evoked from the dorsal root: markedly increased
[3]; morphine 10 mg/kg twice a day for 8 day
  NMDAR-mediated frequency of mEPSCs of spinal dorsal horn neurons: significantly increased
WT and Cacna2d1 KO mice; Cacna2d1 KO mice
  anti-nociceptive effect of morphine at the end of 8-day treatment: largely preserved
WT and Cacna2d1 KO mice; Cacna2d1 KO mice, daily morphine
  baseline withdrawal threshold: did not significantly affect
WT and Cacna2d1 KO mice; [6]
  anti-nociceptive effect of morphine: diminished
  baseline withdrawal thresholds to noxious pressure and heat: gradually reduced

## CC(C)C[C@H](CN)CC(=O)O [pregabalin]
paclitaxel-treated rats
  paclitaxel-induced pain hypersensitivity (tactile allodynia, mechanical and thermal hyperalgesia): readily reversed
[4]; paclitaxel-treated rats
  reduced PPR of evoked EPSCs: completely normalized
[4]; [7]
  increased amplitude of evoked monosynaptic EPSCs: returned the amplitude of evoked monosynaptic EPSCs of lamina II neurons to the baseline level
  increased frequency of mEPSCs of lamina II neurons: completely normalized
[4]; vehicle-treated rats
  PPR of evoked EPSCs: had no effect
[4]; [8]
  amplitude of evoked monosynaptic EPSCs: had no effect
  frequency of mEPSCs of lamina II neurons: had no effect
